Data published in patent US20230339915A1 (Vertex Pharmaceuticals Incorporated, priority 2020, published 2023).

Columns and labels:
[1] = target: NL20 human bronchial epithelial cells expressing human Z-AAT (Homo sapiens (Human), UniProt P01009, E366K); assay: AAT Function Assay (MSD Assay NL20-SI Cell Line); assay type: cell-based; conditions: functionally active AAT (AAT-hNE complex, MSD) in supernatant of NL20 cells expressing human Z-AAT; read-out: NL20 Functional EC50
Protocol: A. AAT Function Assay (MSD Assay NL20-SI Cell Line)
Alpha-1 antitrypsin (AAT) is a SERpIN (serine protease inhibitor) that inactivates enzymes by binding to them covalently. This assay measured the amount of functionally active AAT in a sample in the presence of the disclosed Compounds 1-227 by determining the ability of AAT to form an irreversible complex with human neutrophil Elastase (hNE). In practice, the sample (cell supernatant, blood sample, or other) was incubated with excess hNE to allow AAT-Elastase complex to be formed with all functional AAT in the sample. This complex was then captured to a microplate coated with an anti-AAT antibody. The complex captured to the plate was detected with a labeled anti-Elastase antibody and quantitated using a set of AAT standards spanning the concentration range present in the sample. Meso Scale Discovery (MSD) plate reader, Sulfo-tag labeling, and microplates were used to provide high sensitivity and wide dynamic range.
Instrument(S): • Meso Sector S600 • Bravo • Washer dispenser • Multidrop Combi
Day 1 Cell Culture • 1. Harvest NL20 human bronchial epithelial cells expressing human Z-AAT in OptiMEM™ containing Pen/Strep (P/S) • 2. Seed at 16,000 cells/well in 30 μL (384 well plate) • 3. Centrifuge plates briefly up to speed (1200 rpm) and place into 37° C. incubator overnight
Day 2: Compound Addition and Coating Plates with Capture Antibody
Compound Addition: • 1. Dispense 40 μL of OptiMEM™ (P/S) with doxycycline (1:1000 stock=0.1 μM final) to each well of the compound plate using a multidrop Combi in hood • 2. Remove cell plate from incubator, flip/blot and take immediately to Bravo to transfer compounds • 3. Return plates to incubator overnight
Coat MSD Plates • 1. Dilute capture antibody (Polyclonal Goat anti-AAT) to 5 μg/mL (1:200) in PBS (no BSA). • 2. Dispense 25 μL of diluted capture antibody into all wells of MSD 384-well High Bind plate using the Multidrop equipped with a standard cassette. • 3. Incubate overnight at 4° C.
Prepare Blocker A (BSA) Solutions • 1. Prepare solution of 5% MSD Blocker A (BSA) following the manufacturer's instructions. • 2. Further dilute the 5% MSD Blocker A in PBS to 1% (Blocker A) as needed.
Block Plates • 1. Wash plate 1× with 50 μL Wash buffer (PBS+0.5% Tween 20), and adds 35 μL 5% Block A buffer to block non-specific binding on washer dispenser • 2. Rotate plates on shaker for 1 hour at 600 rpm
Prepare M-AA T Standards • 1. Dilute M-AAT stock to 1.6 μg/mL in 1% BSA Blocker A (Stock in −70° C.); then prepare 12×1:2 serial dilutions in 1% Blocker A • 2. The top starting final concentration on MSD plate is 320 ng/mL. These dilutions correspond to a final concentration of 320, 160, 80, 40, 20, 10, 5, 2.5, 1.25, 0.625, 0.312, 0.156 ng/mL.
Dilution Plate • 1. Add 80 μL of 1% Assay buffer to all wells except columns 1/24 (standards) with Multidrop Combi • 2. Add diluted standards to columns 1 and 24 • 3. Centrifuge dilution plates 1200 rpm briefly
Cell Plate • 1. Aspirate columns which will have the standards from the cell plates in the hood using 16-pin aspirator
Prepare Human Neutrophil Elastase (hNE) • 1. Prepare 1 μg/mL Human Neutrophil Elastase by diluting in 1% Blocker A. • a. Small 100 μg vial—add 1 mL PBS (100 μg/mL) • i. This can then be diluted 1:100 in 1% Assay Buffer for a final 1 μg/mL concentration
MSD—add hNE (20 μL/well) • 1. After the MSD plate has blocked for at least 1 hour, wash plate 1× with 50 μL Wash buffer (PBS+0.5% Tween 20) and then add 20 μL hNE to each well
Bravo—Cell Plate—Dilution Plate—MSD Plate
Using the Bravo aspirate 10 μL from the cell plate, transfer to the dilution plate (9-fold dilution) • 1. Mix 25 μL 3×, then aspirate 5 μL, transfer to MSD plate (5-fold dilution) • 2. Mix 10 μL 3×. Total dilution is 45 fold. • 3. Shake plates at 600 rpm for 1.5 hours
Add Functional Detection hNE Antibody • 1. Wash plate 1× with wash buffer • 2. […]

[2] = target: purified Z-AAT protein from human plasma (Homo sapiens (Human), UniProt P01009, E366K); assay: Biochemical Assay (Z-AAT Elastase Activity Assay); conditions: purified Z-AAT pre-incubated with compound 1 hour, then human neutrophil elastase and fluorescent substrate
purified Z-AAT protein from human plasma, sequence (P01009 25-418 E366K limits assumed): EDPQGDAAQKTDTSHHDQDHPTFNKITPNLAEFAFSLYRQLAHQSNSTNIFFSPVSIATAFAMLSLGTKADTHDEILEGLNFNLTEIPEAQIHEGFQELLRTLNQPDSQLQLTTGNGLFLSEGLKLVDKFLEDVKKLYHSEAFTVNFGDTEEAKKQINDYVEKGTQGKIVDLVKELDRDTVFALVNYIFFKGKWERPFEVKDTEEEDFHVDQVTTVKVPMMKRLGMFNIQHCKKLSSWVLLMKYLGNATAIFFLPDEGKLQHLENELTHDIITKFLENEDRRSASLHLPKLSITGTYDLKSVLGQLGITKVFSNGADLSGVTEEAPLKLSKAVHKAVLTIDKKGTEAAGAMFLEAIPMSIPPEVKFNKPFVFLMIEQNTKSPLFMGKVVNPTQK
Source text: B. Biochemical Assay (Z-AAT Elastase Activity Assay)
This assay measured the modulation of Compounds 1-227 on Z-AAT SERpIN activity using purified Z-AAT protein and purified human neutrophil elastase (hNE). Normally, when active monomeric Z-AAT encounters a protease such as trypsin or elastase, it forms a 1:1 covalent “suicide” complex in which both the AAT and protease are irreversibly inactivated. However, compounds binding to Z-AAT can lead to a decrease in SERpIN activity. In such cases, when a protease encounters compound-bound Z-AAT, the protease cleaves and inactivates Z-AAT without itself being inactivated.
Reagents • PBS buffer (media prep)+0.01% BRIJ35 detergent (Calbiochem catalog #203728) Opti-MEM media (Fisher 11058-021) • Human neutrophil elastase (hNE, Athens Research #16-14-051200) • 3.4 μM stock (0.1 mg/mL) prepared in 50 mM Na Acetate, pH 5.5, 150 mM NaCl, stored at −80° C. • Elastase substrate V (ES V, fluorescent peptide substrate MeOSuc-Ala-Ala-Pro-Val-AMC, Calbiochem catalog #324740) • 20 mM stock in DMSO, stored at −20° C. • Purified Z-AAT protein from human plasma; • 12.9 μM (0.67 mg/mL) Z-AAT Vertex Cambridge Sample 4942, from patient • #061-SSN, stored at −80 C
Plates • Corning 4511 (384 well black low volume)
Instruments • PerkinElmer® EnVision™
Pre-Incubation of Z-AAT with Compounds • 1. 7.5 μL of Z-AAT (20 nM) was incubated with compounds 1-227 in a GCA plate for 1 hour at room temperature
Addition of hNE • 1. 7.5 ul of HNE solution (3 nM in PBS+0.01% BRIJ35) added into GCA plate • 2. Incubate plate for 30 minutes to allow Z-AAT/HNE suicide complex formation.
Addition of Substrate and Read Plate on PE Envision • 1. 7.5 μL of substrate (300 μM solution of elastase substrate (ES V) in PBS+0.01% BRIJ35) dispensed per well into GCA plate • 2. Immediately read on Envision.

NL20 human bronchial epithelial cells expressing human Z-AAT, sequence (P01009 25-418 E366K limits assumed): as above

EC50 [1] [nM] | IC50 [2] [nM] | Compound
> 2000 | > 30000 | Cc1cc(-n2c(C(C)C)c([C@@H]3COCC3C(=O)O)c3cc(O)ccc32)ccc1F (mixture of isomers) [Compound 82]
> 2000 | > 30000 | Cc1cc(-n2c(C(C)C)c([C@H]3CC[C@@H](C(=O)O)C3)c3cc(O)ccc32)ccc1F (racemic) [Compound 74]
500 to 2000 | > 5000 | Cc1cc(-n2c(C(C)C)c([C@H]3CC[C@H](C(=O)O)C3)c3cc(O)ccc32)ccc1F (racemic) [Compound 79]
> 2000 | > 30000 | Cc1cc(-n2c(C(C)C)c([C@@H]3COC[C@@H]3C(=O)O)c3cc(O)ccc32)ccc1F (racemic) [Compound 83]
500 to 2000 | > 30000 | Cc1cc(-n2c(C3CCOCC3)c([C@H]3CCC[C@@H](CC(=O)O)C3)c3cc(O)ccc32)ccc1F (racemic) [Compound 105, cis-2-(3-(1-(4-fluoro-3-methylphenyl)-5-hydroxy-2-(tetrahydro-2H-pyran-4-yl)-1H-indol-3-yl)cyclohexyl)acetic acid]
> 2000 | > 30000 | CCC(O)c1c(C#N)c2cc(O)ccc2n1-c1ccc(F)cc1 (racemic) [Compound 189, 1-(4-fluorophenyl)-5-hydroxy-2-(1-hydroxypropyl)indole-3-carbonitrile]
500 to 2000 | > 5000 | CCC(OC)c1c(C#N)c2cc(O)ccc2n1-c1ccc(F)cc1 (racemic) [Compound 190, 1-(4-fluorophenyl)-5-hydroxy-2-(1-methoxypropyl)indole-3-carbonitrile]
> 2000 | > 30000 | Cc1cc(-n2c(C3CCOCC3)c([C@H]3C[C@@H]3C(=O)O)c3cc(O)ccc32)ccc1F (relative stereo) [Compound 124, trans-2-[1-(4-fluoro-3-methyl-phenyl)-5-hydroxy-2-tetrahydropyran-4-yl-indol-3-yl]cyclopropanecarboxylic acid]
500 to 2000 | > 30000 | O=C(O)[C@H]1CCC[C@@H](c2c(C3CCOCC3)n(-c3ccc(F)c(F)c3)c3ccc(O)cc23)C1 (relative stereo) [Compound 136, cis-3-(1-(3,4-difluorophenyl)-5-hydroxy-2-(tetrahydro-2H-pyran-4-yl)-1H-indol-3-yl)cyclohexane-1-carboxylic acid]
> 2000 | > 30000 | Cc1cc(-n2c(C(C)C)c(CC(C)C(=O)O)c3cc(O)ccc32)ccc1F (single isomer, unassigned) [Compound 101]
> 2000 | > 30000 | Cc1cc(-n2c(C(C)C)c(CC(C)C(=O)O)c3cc(O)ccc32)ccc1F (single isomer, unassigned) [Compound 102]
500 to 2000 | > 5000 | Cc1cc(-n2c(C(C)C)c(C3CC(F)(C(=O)O)C3)c3cc(O)ccc32)ccc1F (single isomer, unassigned) [Compound 150]
– | > 30000 | Cc1cc(-n2c(C3CCOCC3)c([C@H]3CC[C@H](C(=O)O)CC3)c3cc(O)ccc32)ccc1F [Compound 1, trans-4-(1-(4-fluoro-3-methylphenyl)-5-hydroxy-2-(tetrahydro-2H-pyran-4-yl)-1H-indol-3-yl)cyclohexane-1-carboxylic acid]
500 to 2000 | > 30000 | Cc1cc(-n2c(C3CCOCC3)c(C3CCCC(C(=O)O)C3)c3cc(O)ccc32)ccc1F (stereo not shown) [Compound 3]
> 2000 | > 30000 | Cc1cc(-n2c(C3CCOCC3)c(CC34CC(C(=O)O)(C3)C4)c3cc(O)ccc32)ccc1F [Compound 4]
> 2000 | > 30000 | Cc1cc(-n2c(C3CCOCC3)c(C[C@H]3CC[C@H](C(=O)O)CC3)c3cc(O)ccc32)ccc1F [Compound 5]
> 2000 | > 30000 | Cc1cc(-n2c(C(C)C)c(C3CC(C(=O)O)C3)c3cc(O)ccc32)ccc1F (stereo not shown) [Compound 6]
> 2000 | > 30000 | Cc1cc(-n2c(C3CCOCC3)c(C[C@H]3C[C@H](C(=O)O)C3)c3cc(O)ccc32)ccc1F [Compound 7]
500 to 2000 | – | Cc1cc(-n2c(C(C)C)c([C@H]3C[C@@H]3C(=O)O)c3cc(O)c(F)cc32)ccc1F [Compound 129]
500 to 2000 | – | Cc1cc(-n2c(C(C)C)c(C3CC3(C)C(=O)O)c3cc(O)ccc32)ccc1F (stereo not shown) [Compound 130]
< 500 | – | Cc1cc(-n2c(C(C)C)c(-c3ccc(C(=O)O)cc3)c3cc(O)ccc32)ccc1F [Compound 167]
500 to 2000 | – | Cc1cc(-n2c(C(C)C)c(-c3ccc(C(=O)O)cc3C)c3cc(O)ccc32)ccc1F [Compound 170]
> 2000 | – | Cc1c(C#N)c2cc(O)ccc2n1-c1ccc(F)cc1 [Compound 182, 1-(4-fluorophenyl)-5-hydroxy-2-methyl-1H-indole-3-carbonitrile]
> 2000 | – | Cc1c(C(C)C#N)c2cc(O)ccc2n1-c1ccc(F)cc1 (stereo not shown) [Compound 183, 2-(1-(4-fluorophenyl)-5-hydroxy-2-methyl-1H-indol-3-yl)propanenitrile]
> 2000 | – | Cc1cc(-n2c(C(C)C)c([C@H]3C[C@H](c4n[nH]c(=O)o4)C3)c3cc(O)ccc32)ccc1F [Compound 221, Trans-5-[3-[1-(4-fluoro-3-methyl-phenyl)-5-hydroxy-2-isopropyl-indol-3-yl]cyclobutyl]-3H-1,3,4-oxadiazol-2-one]
> 2000 | – | Cc1cc(-n2c(C(C)C)c([C@H]3C[C@@H](c4n[nH]c(=O)o4)C3)c3cc(O)ccc32)ccc1F [Compound 222, cis-5-[3-[1-(4-fluoro-3-methyl-phenyl)-5-hydroxy-2-isopropyl-indol-3-yl]cyclobutyl]-3H-1,3,4-oxadiazol-2-one]
